Assay results: paper PMC12631574, “Structure–activity relationships of hydrophobic small molecule irreversible inhibitors of tissue transglutaminase” (RSC Medicinal Chemistry, 2025)

Target: T1, tissue transglutaminase (TG2), C-terminal His-tag TG2 (Homo sapiens, UniProt P21980)
T1 construct: host or cells: Novagen Rosetta 2 (DE3) E. coli
T1 sequence (P21980 1-687): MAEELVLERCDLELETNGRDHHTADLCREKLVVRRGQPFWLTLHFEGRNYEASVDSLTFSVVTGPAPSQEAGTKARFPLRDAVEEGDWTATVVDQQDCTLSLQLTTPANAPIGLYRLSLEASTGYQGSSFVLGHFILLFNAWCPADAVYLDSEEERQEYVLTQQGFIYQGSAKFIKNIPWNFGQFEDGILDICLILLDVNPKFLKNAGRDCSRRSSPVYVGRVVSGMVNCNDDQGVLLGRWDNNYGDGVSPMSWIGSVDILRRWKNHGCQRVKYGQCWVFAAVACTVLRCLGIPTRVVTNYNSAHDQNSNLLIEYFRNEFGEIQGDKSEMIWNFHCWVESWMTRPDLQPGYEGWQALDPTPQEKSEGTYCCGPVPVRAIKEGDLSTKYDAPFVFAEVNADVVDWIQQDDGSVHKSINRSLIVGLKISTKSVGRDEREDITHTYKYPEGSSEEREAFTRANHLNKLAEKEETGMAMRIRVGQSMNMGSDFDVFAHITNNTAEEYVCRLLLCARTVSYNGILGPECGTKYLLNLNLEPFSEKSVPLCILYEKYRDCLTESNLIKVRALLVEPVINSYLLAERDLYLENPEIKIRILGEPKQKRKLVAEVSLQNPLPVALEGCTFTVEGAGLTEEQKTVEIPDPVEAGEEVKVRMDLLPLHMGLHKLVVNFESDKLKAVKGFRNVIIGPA
Experiment: continuous AL5 hydrolysis assay of irreversible TG2 inhibition (kobs vs [I]/α)
Format: biochemical

[1] = irreversible inhibition, AL5 100 μM, pH 6.9, 25 °C, triplicate
[2] = supplement, kinetics data and fitting

Row | Structure (SMILES) | kinact [s⁻¹] | KI (inactivation) [1] [µM] | KI (inactivation) [2] [µM] | kinact/KI [2]
1 | C=CC(=O)NCC(=O)N1CCN(C(=O)c2cccc(Cc3ccccc3)c2)CC1 [Compound 22d, N-2-[4-[((3-benzylphenyl)carbonyl)-1-piperazinyl]-2-oxoethyl]propenamide] | 0.0168 | 8.8 ± 2.7 | 8.84 ± 2.72 | 114 ± 38 × 103 M-1min-1
2 | C=CC(=O)NCC(=O)N1CCN(C(=O)c2cccc(Nc3ccccc3)c2)CC1 [Compound 22f, N-2-[4-[(((3-Phenylamino)phenyl)carbonyl)-1-piperazinyl]-2-oxoethyl]propenamide] | 0.0165 | 31.7 ± 8.6 | 31.7 ± 8.6 | 31.2 ± 10.0 × 103 M-1min-1
3 | C=CC(=O)NCC(=O)N1CCN(C(=O)c2ccc(-c3ccccc3C)cc2)CC1 [Compound 21g, N-2-[4-[((2′-Methyl-4-biphenyl)carbonyl)-1-piperazinyl]-2-oxoethyl]propenamide] | 0.0217 | 54.1 ± 14.6 | 54.1 ± 14.6 | 24.1 ± 7.3 × 103 M-1min-1
4 | C=CC(=O)NCC(=O)N1CCN(S(=O)(=O)C23CC4CC(CC(C4)C2)C3)CC1 [Compound 38, N-[2-(4-((Adamantan-1-yl)sulfonyl)piperazin-1-yl)-2-oxoethyl]propenamide] | 0.0162 | 7.56 ± 1.87 | 7.56 ± 1.87 | 129 ± 36 × 103 M-1min-1
5 | C=CC(=O)NCC(=O)N1CCN(C(=O)c2ccc(Nc3ccccc3)cc2)CC1 [Compound 22i, N-2-[4-[(((4-Phenylamino)phenyl)carbonyl)-1-piperazinyl]-2-oxoethyl]propenamide] | 0.0255 | 92.8 ± 43.3 | 92.8 ± 43.3 | 16.5 ± 9.4 × 103 M-1min-1
6 | C=CC(=O)NCC(=O)N1CCN(C(=O)c2cccc(Oc3ccccc3)c2)CC1 [Compound 22e, N-2-[4-[((3-Phenoxyphenyl)carbonyl)-1-piperazinyl]-2-oxoethyl]propenamide] | 0.0223 | 11.9 ± 4 | 11.9 ± 4 | 112 ± 41 × 103 M-1min-1
7 | C=CC(=O)NCC(=O)N1CCN(C(=O)C2CC2)CC1 [Compound 6a, N-2-[4-[(Cyclopropanecarbonyl)-1-piperazinyl]-2-oxoethyl]propenamide] | 0.00593 | 23.5 ± 6.5 | 23.5 ± 6.5 | 15.2 ± 4.6 × 103 M-1min-1
8 | C=CC(=O)NCC(=O)N1CCN(C(=O)c2ccccc2Oc2ccccc2)CC1 [Compound 22b, N-2-[4-[((2-Phenoxyphenyl)carbonyl)-1-piperazinyl]-2-oxoethyl]propenamide] | 0.0143 | 9.1 ± 0.8 | 9.06 ± 0.8 | 94.8 ± 9.0 × 103 M-1min-1
9 | C=CC(=O)NCC(=O)N1CCN(C(=O)c2ccc(-c3cccc(C)c3)cc2)CC1 [Compound 21h, N-2-[4-[((3′-Methyl-4-biphenyl)carbonyl)-1-piperazinyl]-2-oxoethyl]propenamide] | 0.0148 | 38.9 ± 17.7 | 38.9 ± 17.7 | 22.8 ± 11.7 × 103 M-1min-1
10 | C=CC(=O)NCC(=O)N1CCN(C(=O)c2ccccc2-c2ccccc2)CC1 [Compound 7a, N-2-[4-[((2-Biphenyl)carbonyl)-1-piperazinyl]-2-oxoethyl]propenamide] | 0.00958 | 3.2 ± 1 | 3.23 ± 1.14 | 178.0 ± 68.6 × 103 M-1min-1
11 | C=CC(=O)NCC(=O)N1CCN(C(=O)c2ccccc2Nc2ccccc2)CC1 [Compound 22c, N-2-[4-[(((2-Phenylamino)phenyl)carbonyl)-1-piperazinyl]-2-oxoethyl]propenamide] | 0.0119 | 6.4 ± 0.7 | 6.38 ± 0.7 | 112 ± 14 × 103 M-1min-1
12 | C=CC(=O)NCC(=O)N1CCN(C(=O)c2ccccc2Cc2ccccc2)CC1 [Compound 22a, N-2-[4-[((2-Benzylphenyl)carbonyl)-1-piperazinyl]-2-oxoethyl]propenamide] | 0.0146 | 14.2 ± 3.3 | 14.2 ± 3.3 | 61.3 ± 15.9 × 103 M-1min-1
13 | C=CC(=O)NCC(=O)N1CCN(C(=O)C2CCCCCC2)CC1 [Compound 6e, N-2-[4-[(Cycloheptanecarbonyl)-1-piperazinyl]-2-oxoethyl]propenamide] | 0.0099 | 21.5 ± 11 | 21.5 ± 11 | 27.6 ± 16.1 × 103 M-1min-1
14 | C=CC(=O)NCC(=O)N1CCN(C(=O)c2cccc(-c3ccccc3C)c2)CC1 [Compound 21d, N-2-[4-[((2′-Methyl-3-biphenyl)carbonyl)-1-piperazinyl]-2-oxoethyl]propenamide] | 0.012 | 1.1 ± 0.1 | 1.13 ± 0.099 | 636 ± 58 × 103 M-1min-1
15 | C=CC(=O)NCC(=O)N1CCN(C(=O)c2ccc(-c3ccccc3)cc2)CC1 [Compound 7c, N-2-[4-[((4-Biphenyl)carbonyl)-1-piperazinyl]-2-oxoethyl]propenamide] | 0.0118 | 41.1 ± 32.2 | 41.1 ± 32.3 | 17.2 ± 15.5 × 103 M-1min-1
16 | C=CC(=O)NCC(=O)N1CCN(C(=O)c2cccc(-c3ccccc3)c2)CC1 [Compound 7b, N-2-[4-[((3-Biphenyl)carbonyl)-1-piperazinyl]-2-oxoethyl]propenamide] | 0.0118 | 5.3 ± 1.4 | 5.29 ± 1.39 | 133.9 ± 38.4 × 103 M-1min-1
17 | C=CC(=O)NCC(=O)N1CCN(C(=O)c2ccccc2)CC1 [Compound 6f, N-2-[4-[(Benzoyl)-1-piperazinyl]-2-oxoethyl]propenamide] | 0.00827 | 8.1 ± 2.5 | 8.12 ± 2.47 | 61.1 ± 20.0 × 103 M-1min-1
18 | C=CC(=O)NCC(=O)N1CCN(C(=O)c2ccccc2-c2ccccc2C)CC1 [Compound 21a, N-2-[4-[((2′-Methyl-2-biphenyl)carbonyl)-1-piperazinyl]-2-oxoethyl]propenamide] | 0.00955 | 4.8 ± 1 | 4.85 ± 1.02 | 118 ± 27 × 103 M-1min-1
19 | C=CC(=O)NCC(=O)N1CCN(C(=O)c2ccc(Cc3ccccc3)cc2)CC1 [Compound 22g, N-2-[4-[((4-Benzylphenyl)carbonyl)-1-piperazinyl]-2-oxoethyl]propenamide] | 0.0253 | 58.1 ± 9.4 | 58.1 ± 9.4 | 26.1 ± 4.9 × 103 M-1min-1
20 | C=CC(=O)NCC(=O)N1CCN(C(=O)C2CCC2)CC1 [Compound 6b, N-2-[4-[(Cyclobutanecarbonyl)-1-piperazinyl]-2-oxoethyl]propenamide] | 0.00842 | 20.2 ± 3.5 | 20.2 ± 3.5 | 25.0 ± 4.7 × 103 M-1min-1
21 | C=CC(=O)NCC(=O)N1CCN(C(=O)c2ccccc2-c2cccc(C)c2)CC1 [Compound 21b, N-2-[4-[((3′-Methyl-2-biphenyl)carbonyl)-1-piperazinyl]-2-oxoethyl]propenamide] | 0.00902 | 2.6 ± 0.7 | 2.64 ± 0.72 | 205 ± 60 × 103 M-1min-1
